Test results taken from article PMC8161026, “Synthesis and Anticancer Activity Evaluation of 5-[2-Chloro-3-(4-nitrophenyl)-2-propenylidene]-4-thiazolidinones” (Molecules, 2021).

Key:
[1] = system: Breast Cancer subpanel; assay: cells
Method: (§1) At the first stage of biological activity study, the antitumor activity screening of the selected compounds 2b, 2c, 2f, 2h, and 2j was performed according to the NCI DTP (USA) standard protocol at the concentrations ranging from 10^−4 to 10^−8 M toward 60 tumor cell lines. The percentage of growth was evaluated spectrophotometrically versus controls not treated with test agents after 48 h exposure and using SRB protein assay to estimate cell viability or growth. Dose–response parameters were calculated for each cell line: GI50—molar concentration of the compound that inhibits 50% net cell growth; TGI—molar concentration of the compound leading to the total inhibition; and LC50—molar concentration of the compound leading to 50% net cell death. Furthermore, mean graph midpoints (MG_MID) were calculated for each of the parameters, giving an average activity parameter over all cell lines for the tested compound. For the MG_MID calculation, insensitive cell lines were included with the highest concentration tested.
(§2) The selectivity index (SI) obtained by dividing the full panel MG-MID (mM) of the tested compound by their individual subpanel MG-MID (mM) was considered as a measure of selectivity of anticancer activity (Table 3).
(§3) Primary anticancer assay was performed on a panel of approximately sixty human tumor cell lines derived from nine neoplastic diseases, in accordance with the protocol of the Drug Evaluation Branch, National Cancer Institute, Bethesda. Tested compounds were added to the culture at a single concentration (10^−5 M) and the cultures were incubated for 48 h. End point determinations were made with a protein binding dye, sulforhodamine B (SRB). […] The percentage growth was evaluated spectrophotometrically versus controls not treated with test agents.
(§4) Dose–response parameters (GI50, TGI, LC50) were calculated for each compound. […] The drug concentration resulting in total growth inhibition (TGI) was calculated from Ti = Tz. The LC50 (concentration of drug resulting in a 50% reduction in the measured protein at the end of the drug treatment as compared to that at the beginning) indicating a net loss of cells following treatment was calculated from [(Ti − Tz)/Tz] × 100 = −50 (2). Values were calculated for each of these parameters if the level of activity was reached; however, if the effect was not reached or was excessive, the value for that parameter was expressed as more or less than the maximum or minimum concentration tested.

[2] = system: CNS Cancer subpanel; assay: cells
Method: as §1, §2, §3, §4

[3] = system: Colon Cancer subpanel; assay: cells
Method: as §1, §2, §3, §4

[4] = system: Leukemia subpanel; assay: cells
Method: as §1, §2, §3, §4

[5] = system: Melanoma subpanel; assay: cells
Method: as §1, §2, §3, §4

[6] = system: Non-Small Cell Lung Cancer subpanel; assay: cells
Method: as §1, §2, §3, §4

[7] = system: Ovarian Cancer subpanel; assay: cells
Method: as §1, §2, §3, §4

[8] = system: Prostate Cancer subpanel; assay: cells
Method: as §1, §2, §3, §4

[9] = system: Renal Cancer subpanel; assay: cells
Method: as §1, §2, §3, §4

[10] = system: RPMI-8226
[11] = system: SK-MEL-2; details: SK-MEL-2 (Melanoma), 48 h, SRB
[12] = system: EKVX; assay: cells; details: Homo sapiens, 48 h
[13] = system: HOP-62; assay: cells; details: Homo sapiens, HOP-62, 48 h
[14] = system: LOX IMVI; assay: cells; details: Homo sapiens, 48 h
[15] = system: SK-MEL-2; assay: cells; details: Homo sapiens, SK-MEL-2, 48 h
[16] = system: HT-29; assay: NCI DTP 60 cell line screen, SRB
[17] = system: M14; assay: NCI DTP 60 cell line screen, SRB
[18] = system: OVCAR-4; assay: NCI DTP 60 cell line screen, SRB
[19] = system: NCI/ADR-Res; assay: NCI DTP 60 cell line screen, SRB; details: 48 h
[20] = Homo sapiens, read-out: MG_MID, GI50
[21] = Homo sapiens, read-out: MG_MID, LC50

Structure (SMILES): O=C(O)CCN1C(=O)/C(=C/C(Cl)=C/c2ccc([N+](=O)[O-])cc2)SC1=S [Compound 2h, 3-{5-[(Z,2Z)-2-Chloro-3-(4-nitrophenyl)-2-propenylidene]-4-oxo-2-thioxothiazolidin-3-yl}propanoic acid]
- SI (selectivity index), GI50 [1]: 2.63
- SI (selectivity index), TGI [1]: 0.63
- MG_MID, TGI ([1]; Breast Cancer panel mean): 21.1 µM
- GI50 [1, 20]: 0.598 µM
- CC50 [1, 21]: 49.6 µM
- SI (selectivity index), LC50 ([1]; full panel MG_MID / Breast Cancer subpanel MG_MID): 1.31
- SI (selectivity index), GI50 [2]: 0.50
- SI (selectivity index), TGI [2]: 0.75
- MG_MID, TGI ([2]; CNS Cancer panel mean): 17.7 µM
- GI50 [2, 20]: 3.13 µM
- CC50 [2, 21]: 84.9 µM
- SI (selectivity index), LC50 ([2]; full panel MG_MID / CNS Cancer subpanel MG_MID): 0.77
- SI (selectivity index), GI50 [3]: 3.43
- SI (selectivity index), TGI [3]: 0.57
- MG_MID, TGI ([3]; Colon Cancer panel mean): 23.3 µM
- GI50 [3, 20]: 0.458 µM
- CC50 [3, 21]: > 100 µM
- SI (selectivity index), LC50 ([3]; full panel MG_MID / Colon Cancer subpanel MG_MID): <0.65
- SI (selectivity index), GI50 [4]: 10.83
- SI (selectivity index), TGI [4]: 2.45
- TI (Therapeutic Index) ([4]; GI50 (normal blood lymphocyte)/GI50 (Leukemia Panel)): 376.14
- GI50 [4, 20]: 0.145 µM
- CC50 [4, 21]: > 100 µM
- MG_MID, TGI ([4]; Leukemia panel mean): 5.42 µM
- SI (selectivity index), LC50 ([4]; full panel MG_MID / Leukemia subpanel MG_MID): <0.65
- SI (selectivity index), GI50 [5]: 0.64
- SI (selectivity index), TGI [5]: 0.96
- GI50 [5, 20]: 2.45 µM
- CC50 [5, 21]: 53.1 µM
- MG_MID, TGI ([5]; Melanoma panel mean): 13.9 µM
- SI (selectivity index), LC50 ([5]; full panel MG_MID / Melanoma subpanel MG_MID): 1.22
- SI (selectivity index), GI50 [6]: 0.59
- SI (selectivity index), TGI [6]: 1.38
- GI50 [6, 20]: 2.65 µM
- CC50 [6, 21]: 61.4 µM
- MG_MID, TGI ([6]; Non-Small Cell Lung Cancer panel mean): 9.61 µM
- SI (selectivity index), LC50 ([6]; full panel MG_MID / Non-Small Cell Lung Cancer subpanel MG_MID): 1.06
- SI (selectivity index), GI50 [7]: 0.74
- SI (selectivity index), TGI [7]: 1.05
- GI50 [7, 20]: 2.13 µM
- CC50 [7, 21]: 68.7 µM
- MG_MID, TGI ([7]; Ovarian Cancer panel mean): 12.7 µM
- SI (selectivity index), LC50 ([7]; full panel MG_MID / Ovarian Cancer subpanel MG_MID): 0.95
- SI (selectivity index), GI50 [8]: 2.77
- SI (selectivity index), TGI [8]: 1.55
- GI50 [8, 20]: 0.567 µM
- CC50 [8, 21]: 47.1 µM
- MG_MID, TGI ([8]; Prostate Cancer panel mean): 8.59 µM
- SI (selectivity index), LC50 ([8]; full panel MG_MID / Prostate Cancer subpanel MG_MID): 1.38
- SI (selectivity index), TGI [9]: 2.77
- GI50 [9, 20]: 0.99 µM
- CC50 [9, 21]: 23.8 µM
- MG_MID, TGI ([9]; Renal Cancer panel mean): 4.81 µM
- SI (selectivity index), LC50 ([9]; full panel MG_MID / Renal Cancer subpanel MG_MID): 2.73
- TI (Therapeutic Index) ([10]; GI50 (normal blood lymphocyte)/GI50 (RPMI-8226)): 395.22
- TGI ([10]; RPMI-8226 (Leukemia), 48 h, SRB): 1.30 µM
- TGI [11]: 4.93 µM
- GI50 [12]: 0.334 µM
- CC50 ([12]; read-out: LC50): 55.6 µM
- GI50 [13]: 6.54 µM
- CC50 ([13]; read-out: LC50): 52.8 µM
- GI50 [14]: 0.161 µM
- CC50 ([14]; read-out: LC50): > 100 µM
- GI50 [15]: 0.802 µM
- CC50 ([15]; read-out: LC50): 65.1 µM
- TGI ([16]; HT-29 (Colon Cancer), 48 h, SRB): 2.77 µM
- GI50 ([16]; Homo sapiens, HT-29, 48 h): 1.25 µM
- CC50 ([16]; Homo sapiens, HT-29, 48 h, read-out: LC50): > 100 µM
- GI50 ([17]; Homo sapiens, M14, 48 h): 1.66 µM
- CC50 ([17]; Homo sapiens, M14, 48 h, read-out: LC50): 7.74 µM
- TGI ([17]; M14 (Melanoma), 48 h, SRB): 3.58 µM
- GI50 ([18]; Homo sapiens, OVCAR-4, 48 h): 2.66 µM
- CC50 ([18]; Homo sapiens, OVCAR-4, 48 h, read-out: LC50): 56.2 µM
- TGI ([18]; OVCAR-4 (Ovarian Cancer), 48 h, SRB): 14.9 µM
- GI50 ([19]; Homo sapiens, NCI/ADR-RES): 0.407 µM
- CC50 ([19]; Homo sapiens, NCI/ADR-RES, read-out: LC50): 6.43 µM
- TGI ([19]; NCI/ADR-Res (Breast Cancer), SRB): 2.11 µM
